Assays:
[1] = biological target: T1, h-Sortilin (Homo sapiens, UniProt Q99523); test: Neurotensin scintillation proximity assay (displacement of [3H]-neurotensin binding); details: 150 nM 6his-Sortilin, 5 nM [3H]-Neurotensin; average of at least 2 determinations; read-out: IC50 [3H]Neurotensin SPA
T1 sequence (Q99523 78-831): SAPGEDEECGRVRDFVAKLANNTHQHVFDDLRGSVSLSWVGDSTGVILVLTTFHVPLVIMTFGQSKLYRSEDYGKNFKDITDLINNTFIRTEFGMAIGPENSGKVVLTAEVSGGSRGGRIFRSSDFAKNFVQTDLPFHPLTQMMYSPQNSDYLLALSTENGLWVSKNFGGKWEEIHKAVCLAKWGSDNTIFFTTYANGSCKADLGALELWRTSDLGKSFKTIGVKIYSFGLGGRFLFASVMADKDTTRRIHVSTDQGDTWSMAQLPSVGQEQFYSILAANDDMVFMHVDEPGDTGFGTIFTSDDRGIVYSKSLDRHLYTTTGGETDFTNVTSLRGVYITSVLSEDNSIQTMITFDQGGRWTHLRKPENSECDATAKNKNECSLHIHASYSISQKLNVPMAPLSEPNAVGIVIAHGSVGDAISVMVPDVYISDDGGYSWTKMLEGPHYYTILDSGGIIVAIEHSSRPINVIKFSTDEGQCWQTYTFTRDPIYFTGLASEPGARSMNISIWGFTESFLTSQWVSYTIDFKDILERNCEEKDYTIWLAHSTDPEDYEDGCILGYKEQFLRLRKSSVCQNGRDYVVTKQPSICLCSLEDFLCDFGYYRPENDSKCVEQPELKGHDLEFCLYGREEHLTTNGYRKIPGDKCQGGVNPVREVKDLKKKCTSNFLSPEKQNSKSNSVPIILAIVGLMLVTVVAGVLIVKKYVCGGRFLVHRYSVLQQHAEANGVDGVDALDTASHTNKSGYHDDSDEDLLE
Procedure: The exemplified compounds of the invention were tested in a Neurotensin (NTS) scintillation proximity assay (SPA). NTS, which is a 13 amino acid neuropeptide, is a sortilin ligand. The IC50 is a measure of the amount of the compound required to inhibit the binding of NTS to sortilin by 50%. The skilled person will recognise that the lower the IC50 value, the less of the compound needed to achieve the desired effect, and as a result, the chances of undesirable off-target effects are reduced.
Compound affinity was determined by measuring the displacement of [3H]-neurotensin binding to h-Sortilin in SPA format. Total volume of 40 µl in 50 mM HEPES pH 7.4 assay buffer containing 100 mM NaCl, 2.0 mM CaCl2, 0.1% BSA and 0.1% Tween-20. Compound pre-incubation for 30 minutes at room temperature with 150 nM of 6his-Sortilin before 5 nM [3H]-Neurotensin and Ni chelate imaging beads (Perkin Elmer) were added, after 6 hours the plate was read on a ViewLux with 360 s exposure time. Dose-response evaluation of compounds was performed with 8 concentrations of drugs (covering 3 decades). IC50 values were calculated by nonlinear regression using the sigmoid concentration-response (variable slope) using CDD Vault software. All values reported are average of at least 2 determinations.

[2] = biological target: T2, Sortilin (Homo sapiens, UniProt Q99523); test: Creoptix (GCI) binding kinetics, human Sortilin; details: Species Human, screened at 1 µM, 25 degrees Celsius
T2 construct: purchased Bio-Techne Ltd 3154-ST-050
T2 sequence (Q99523 78-755 limits assumed): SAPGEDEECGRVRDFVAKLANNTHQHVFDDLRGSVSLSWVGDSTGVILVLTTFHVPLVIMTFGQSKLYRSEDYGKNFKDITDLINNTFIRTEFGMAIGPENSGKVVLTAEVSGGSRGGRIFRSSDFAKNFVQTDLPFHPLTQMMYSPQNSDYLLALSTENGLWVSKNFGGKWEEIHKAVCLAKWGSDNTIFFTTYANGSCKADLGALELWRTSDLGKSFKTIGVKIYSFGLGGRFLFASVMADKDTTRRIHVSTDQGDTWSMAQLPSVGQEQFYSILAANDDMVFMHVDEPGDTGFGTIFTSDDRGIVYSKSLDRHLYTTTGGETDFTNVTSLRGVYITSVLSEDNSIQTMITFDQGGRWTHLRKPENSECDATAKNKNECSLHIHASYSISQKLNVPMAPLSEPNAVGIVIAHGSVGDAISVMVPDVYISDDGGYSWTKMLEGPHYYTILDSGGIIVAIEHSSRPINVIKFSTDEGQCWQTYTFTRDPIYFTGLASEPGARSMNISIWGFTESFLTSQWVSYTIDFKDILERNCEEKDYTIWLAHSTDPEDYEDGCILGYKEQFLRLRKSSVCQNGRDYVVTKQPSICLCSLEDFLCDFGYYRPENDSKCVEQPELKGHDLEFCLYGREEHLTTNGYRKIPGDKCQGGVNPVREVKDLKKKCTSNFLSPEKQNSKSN
Procedure: (§1) Creoptix (GCI) method - using SEQ ID NO.4 (Murine sortillin)
(§2) A protein, bound to a surface, is bathed in a solution containing potential ligands giving rise to binding kinetics to generate Kon and Koff rates, as well as a Kd.
(§3) All buffers described were filtered using a 0.2µm filter (Product number: 10300461, Nalgene) and degassed for 15 minutes prior to use.
(§4) A flow cell temperature of 25 degrees Celsius was used throughout the experiment.
(§5) A 4PCH chip was conditioned across all flow cells using 0.2 X concentration running buffer (running buffer composition: 1XHBS-N, pH 7.4, 3.4 mM EDTA, 1% DMSO) using pre-set conditioning wizard (WAVE control software) injecting: 0.1 M borate, 1 M NaCl (pH 9) followed by three start-up injections of 0.2 X running buffer.
(§6) A buffer exchange was performed and 1x running buffer (1XHBS-N, pH 7.4, 3.4 mM EDTA, 1% DMSO) used during the immobilisation procedure: An initial injection of EDC/NHS (mixed in 1:1 ratio) was performed across all 4-flow cells to activate the surface for amine coupling of ligands.
(§7) Recombinant Sortilin aliquots were thawed quickly by hand and centrifuged at 13,300 rpm for 10 minutes. A 10 µg/ml protein solution was then made in pH 5.0 acetate and injected once for 20 minutes over flow-cells 2, 3 and 4 for human, human (flow cells 2 & 3), and mouse Sortilin respectively followed by a 60 second dissociation period.
(§8) A final 7-minute passivation injection of 50 mM tris was used across all flow cells.
(§9) A flow rate of 10 µl/min was used for all conditioning and immobilisation cycles.
(§10) Compounds were screened at 1 µM using the in-built 'intermediate binders' settings: 100 ul/min, 45 s baseline, 25 s association, 300 s dissociation, with blanks every 5th sample and a DMSO correction (1.5 % DMSO at the start and end of the experiment as well as every 20 cycles. An acquisition rate of 10 Hz was used throughout the experiment.
(§11) Compounds were screened at a final assay concentration of 1 µM and a final DMSO concentration was 1 %. To achieve this, compounds were diluted in DMSO from 10 mM stocks to 100 µM (100 x final assay concentration) then diluted 1:100 in running buffer which contained no DMSO to establish a final assay concentration of compound of 1 µM and a final DMSO concentration of 1 % [DMSO].
(§12) Compounds and DMSO were mixed by plate shaking at 1000 rpm for 60 seconds using a Bioshake instrument.
(§13) A flow rate of 100 µl/min was used throughout the experiment.
(§14) Data was evaluated using the RAPID kinetic analysis tool in the GCI WAVE_control software with data fitted using a standard 1:1 kinetic BioModel.

[3] = biological target: T3, Sortilin (Mus musculus, UniProt Q6PHU5); test: Creoptix (GCI) binding kinetics, mouse Sortilin; details: Species Mouse, screened at 1 µM, 25 degrees Celsius
T3 construct: purchased Bio-Techne Ltd 2934-ST-050
T3 sequence (Q6PHU5 76-753 limits assumed): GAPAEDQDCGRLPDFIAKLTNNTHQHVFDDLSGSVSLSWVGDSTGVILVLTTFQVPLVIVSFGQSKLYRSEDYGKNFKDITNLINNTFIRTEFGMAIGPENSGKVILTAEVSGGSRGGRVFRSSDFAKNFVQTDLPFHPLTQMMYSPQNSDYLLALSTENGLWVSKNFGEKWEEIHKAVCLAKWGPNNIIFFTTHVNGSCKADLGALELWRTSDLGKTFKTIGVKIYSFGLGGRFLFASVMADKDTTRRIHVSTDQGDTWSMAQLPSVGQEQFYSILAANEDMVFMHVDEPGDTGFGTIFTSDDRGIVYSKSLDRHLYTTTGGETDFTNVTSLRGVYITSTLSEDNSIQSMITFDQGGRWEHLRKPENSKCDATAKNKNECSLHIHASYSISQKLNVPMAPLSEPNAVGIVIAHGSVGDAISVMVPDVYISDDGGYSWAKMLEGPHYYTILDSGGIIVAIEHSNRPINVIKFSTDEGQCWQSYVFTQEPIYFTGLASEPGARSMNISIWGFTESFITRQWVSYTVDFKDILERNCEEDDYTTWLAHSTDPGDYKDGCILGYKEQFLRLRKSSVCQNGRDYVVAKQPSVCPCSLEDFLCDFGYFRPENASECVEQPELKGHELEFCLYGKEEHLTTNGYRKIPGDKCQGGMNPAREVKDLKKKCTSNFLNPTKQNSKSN
Procedure: as §1, §2, §3, §4, §5, §6, §7, §8, §9, §10, §11, §12, §13, §14

Structure (SMILES)	IC50 [1] [nM]	Kd ([2]; Form of Compound Free acid) [nM]	Kd ([3]; Form of Compound Free acid) [nM]	Kd ([3]; Form of Compound Mesylate salt) [nM]	Kd ([2]; Form of Compound Mesylate salt) [nM]
C[C@@H](N[C@@H](CCC(C)(C)C)C(=O)O)c1ccc2c(c1)NCCC2 [Example 58]	310	67	70.3		
C[C@H](N[C@@H](CCC(C)(C)C)C(=O)O)c1ccc2c(c1)OCO2 [Example 70]	530	133	116		
C[C@H](N[C@@H](CCC(C)(C)C)C(=O)O)c1ccc2c(c1)CCOC2 [Example 59]	320			204	218
CN1CCOc2ccc(CN[C@@H](CCC(C)(C)C)C(=O)O)cc21 [Example 30, (2S)-5,5-dimethyl-2-{[(4-methyl-3,4-dihydro-2H-1,4-benzoxazin-6-yl)methyl]amino}hexanoic acid]	350	5070	7600		
CN1CCOc2cc(CN[C@@H](CCC(C)(C)C)C(=O)O)ccc21 [Example 19, (S)-5,5-dimethyl-2-(((4-methyl-3,4-dihydro-2H-benzo[b][1,4]oxazin-7-yl)methyl)amino)hexanoic acid]	660	3720	3180		
CC(C)(C)CC[C@H](N[C@@H](c1ccc2c(c1)OCCC2)C(F)F)C(=O)O [Example 46]	130	43.4			
CC(C)(C)CC[C@H](NCc1cnc2c(c1)COCC2)C(=O)O [Example 2, (2S)-5,5-dimethyl-2-[({5H,7H,8H-pyrano[4,3-b]pyridin-3-yl}methyl)amino]hexanoic acid]	350	172			
CC(C)(C)CC[C@H](NCc1cccc(Oc2ccccc2)c1)C(=O)O [Example 34]	820	216			
C[C@H](N[C@@H](CCC(C)(C)C)C(=O)O)c1ccc2c(c1)OCCO2 [Example 61]	350	144			
C[C@H](N[C@@H](CCC(C)(C)C)C(=O)O)c1ccc2c(c1)CCC2 [Example 14]	280				35.1

The next lines start with results.

IC50 [1] [nM]	Kd ([2]; Form of Compound Free acid) [nM]	Kd ([3]; Form of Compound Free acid) [nM]	Kd ([3]; Form of Compound Mesylate salt) [nM]	Structure (SMILES)	Kd ([2]; Form of Compound Mesylate salt) [nM]
500	1420	2280		CC(C)(C)CC[C@H](NCc1ccc2c(c1)CNCC2)C(=O)O [Example 18, (2S)-5,5-dimethyl-2-{[(1,2,3,4-tetrahydroisoquinolin-7-yl)methyl]amino}hexanoic acid]	
570	255	299		CC(C)(C)CC[C@H](NCc1ccc2c(c1)CCCN2)C(=O)O [Example 16, (2S)-5,5-dimethyl-2-{[(1,2,3,4-tetrahydroquinolin-6-yl)methyl]amino}hexanoic acid]	
640	200	241		CN1CCc2cc(CN[C@@H](CCC(C)(C)C)C(=O)O)ccc2C1 [Example 10, (S)-5,5-dimethyl-2-(((2-methyl-1,2,3,4-tetrahydroisoquinolin-6-yl)methyl)amino)hexanoic acid]	
310	63.4			CC(C)(C)CC[C@H](NCc1ccc2c(c1)OCCC2)C(=O)O [Example 5, (2S)-2-{[(3,4-dihydro-2H-1-benzopyran-7-yl)methyl]amino}-5,5-dimethylhexanoic acid]	
190	97.3			CC(C)(C)CC[C@H](NCc1ccc2c(c1)NCCC2)C(=O)O [Example 17, (2S)-5,5-dimethyl-2-{[(1,2,3,4-tetrahydroquinolin-7-yl)methyl]amino}hexanoic acid]	

From patent publication EP4342530A1, “SORTILIN MODULATORS” (Insusense ApS, priority 2022, dated 2024)
